Assay results from patent US20070274947A1, “Antisense Oligonucleotides Directed to Ribonucleotide Reductase R1 and Uses Thereof in the Treatment of Cancer” (priority 2003, published 2007).

Test system: LS513 cells
Assay: LS513 multi-drug resistant colon adenocarcinoma growth in SCID mice
Format: in vivo, human
Method: LS513 cells (1×10^7 cells in 100 μl of PBS) were subcutaneously injected into the right flank of 6-7 weeks old female SCID mice. After the size of tumor reached an approximate volume of 100 mm^3, 8 days post tumor cell injection, SEQ ID NO:1 was administered by bolus infusion into the tail vein every other day at 10 mg/kg. Control animals received saline alone for the same period. Antitumor effect of SEQ ID NO:1 was further compared to that of CPT-11. CPT-11 was administered i.p. for 5 days at a dose of 20 mg/kg/day. Antitumor activities were estimated by the inhibition of tumor volume, which was measured with calipers. Each point represents mean tumor volume calculated from 10 animals per experimental group (FIG. 16A). Tumor weights were measured after animals were sacrificed at the end of the treatment (FIGS. 16B and 16C). These cells are not resistant to CPT-11, which was used as a positive control.

## 5′-CTCTAGCGTCTTAAAGCCGA-3′ (CTCTAGCGTCTTAAAGCCGA; chemistry not given here) [SEQ ID NO:1]
CPT-11 20 mg/kg/day i.p. for 5 days
  efficacy compared with CPT-11: more effective than CPT-11
SCID mice, 10 mg/kg i.v. every other day, vs saline
  tumor growth (volume, weight): significant delay of tumor growth
